Values joined by “and” are separate entries in the source; they are usually repeats but may differ in a detail not shown here. Equal values may be shown once.
Assay: molar heat capacity at constant pressure
Settings: 101.33 kPa, relaxation calorimetry - Quantum Design PPMS

O=P([O-])([O-])OP(=O)([O-])[O-].O=P([O-])([O-])OP(=O)([O-])[O-].O=P([O-])([O-])OP(=O)([O-])[O-].[Fe+3].[Fe+3].[Fe+3].[Fe+3] [iron(III) diphosphate]
molar heat capacity at constant pressure
Settings	Crystal 2	Crystal 3
1 K	–	0.08105 J/K/mol
1.909 K	–	0.1843 J/K/mol
2 K	–	0.2057 J/K/mol
2.045 K	–	0.2088 J/K/mol
2.21 K	–	0.2418 J/K/mol
2.506 K	–	0.3014 J/K/mol
2.763 K	–	0.3632 J/K/mol
3 K	–	0.4233 J/K/mol
3.058 K	–	0.4449 J/K/mol
3.392 K	–	0.553 J/K/mol
3.803 K	–	0.7103 J/K/mol
4 K	–	0.8002 J/K/mol
4.207 K	–	0.9081 J/K/mol
4.685 K	–	1.188 J/K/mol
5 K	–	1.41 J/K/mol
5.203 K	–	1.56 J/K/mol
5.797 K	–	2.097 J/K/mol
6 K	–	2.314 J/K/mol
6.489 K	–	2.871 J/K/mol
7 K	–	3.559 J/K/mol
7.172 K	–	3.81 J/K/mol
7.975 K	–	5.084 J/K/mol
8 K	–	5.127 J/K/mol
8.875 K	–	6.71 J/K/mol
9 K	–	6.952 J/K/mol
10 K	–	9.006 J/K/mol
10.03 K	–	9.074 J/K/mol
11 K	–	11.23 J/K/mol
11.16 K	–	11.61 J/K/mol
12 K	–	13.56 J/K/mol
12.39 K	–	14.49 J/K/mol
13 K	–	15.98 J/K/mol
13.77 K	–	17.87 J/K/mol
14 K	–	18.43 J/K/mol
15 K	–	20.84 J/K/mol
15.31 K	–	21.61 J/K/mol
16 K	–	23.37 J/K/mol
17 K	–	26.01 J/K/mol and 26.02 J/K/mol
18 K	–	28.75 J/K/mol
18.85 K	–	31.22 J/K/mol
19 K	–	31.74 J/K/mol and 31.7 J/K/mol
19.52 K	–	33.09 J/K/mol
20 K	–	34.42 J/K/mol
20.61 K	–	36.2 J/K/mol
20.9 K	–	37.11 J/K/mol
21.09 K	–	37.43 J/K/mol
21.6 K	–	38.93 J/K/mol
21.81 K	–	39.43 J/K/mol
22.11 K	–	40.45 J/K/mol
22.85 K	–	42.81 J/K/mol
23.25 K	–	44.02 J/K/mol
23.87 K	–	46 J/K/mol
23.89 K	–	46.12 J/K/mol
24.08 K	–	46.85 J/K/mol
24.28 K	–	47.45 J/K/mol
24.47 K	–	48.12 J/K/mol
24.67 K	–	48.81 J/K/mol
24.88 K	–	49.5 J/K/mol
25 K	–	49.88 J/K/mol
25.08 K	–	50.12 J/K/mol
25.28 K	–	50.75 J/K/mol
25.47 K	–	51.26 J/K/mol
25.67 K	–	51.84 J/K/mol
25.81 K	–	52.19 J/K/mol
25.87 K	–	52.46 J/K/mol
26.07 K	–	53.07 J/K/mol
26.27 K	–	53.83 J/K/mol
26.48 K	–	54.56 J/K/mol
26.69 K	–	55.35 J/K/mol
26.9 K	–	56.09 J/K/mol
27.11 K	–	56.75 J/K/mol
27.3 K	57.27 J/K/mol	57.27 J/K/mol
27.32 K	57.27 J/K/mol	–
27.52 K	56.92 J/K/mol	–
27.7 K	56.9 J/K/mol	–
27.91 K	56.91 J/K/mol	–
28.04 K	57.08 J/K/mol	–
28.11 K	57.21 J/K/mol	–
28.31 K	57.58 J/K/mol	–
28.53 K	58.14 J/K/mol	–
28.63 K	58.29 J/K/mol	–
28.71 K	58.58 J/K/mol	–
28.91 K	59.09 J/K/mol	–
28.99 K	59.36 J/K/mol	–
29.12 K	59.63 J/K/mol	–
29.32 K	60.15 J/K/mol	–
29.52 K	60.68 J/K/mol	–
30 K	62 J/K/mol	–
30.01 K	62.04 J/K/mol	–
30.53 K	63.41 J/K/mol	–
31.05 K	65.12 J/K/mol	–
31.57 K	66.61 J/K/mol	–
31.8 K	67.25 J/K/mol	–
32.07 K	68.15 J/K/mol	–
32.58 K	69.63 J/K/mol	–
33.05 K	71.25 J/K/mol	–
33.6 K	73.01 J/K/mol	–
34.1 K	74.7 J/K/mol	–
34.61 K	76.5 J/K/mol	–
35 K	77.84 J/K/mol	–
35.09 K	78.15 J/K/mol	–
35.33 K	78.91 J/K/mol	–
35.63 K	80.11 J/K/mol	–
36.09 K	81.71 J/K/mol	–
36.62 K	83.72 J/K/mol	–
37.1 K	85.44 J/K/mol	–
37.66 K	87.47 J/K/mol	–
38.15 K	89.5 J/K/mol	–
38.62 K	91.24 J/K/mol	–
39.17 K	93.41 J/K/mol	–
39.24 K	93.52 J/K/mol	–
39.64 K	95.31 J/K/mol	–
40 K	96.72 J/K/mol	–
40.17 K	97.41 J/K/mol	–
40.66 K	99.59 J/K/mol	–
41.19 K	101.8 J/K/mol	–
41.66 K	103.8 J/K/mol	–
42.22 K	106.31 J/K/mol	–
42.39 K	107.06 J/K/mol	–
42.6 K	108.05 J/K/mol	–
42.8 K	108.92 J/K/mol	–
43 K	109.89 J/K/mol	–
43.2 K	110.79 J/K/mol	–
43.41 K	111.83 J/K/mol	–
43.59 K	112.41 J/K/mol	–
43.6 K	112.72 J/K/mol	–
43.8 K	113.72 J/K/mol	–
44.01 K	114.89 J/K/mol	–
44.2 K	115.83 J/K/mol	–
44.41 K	116.9 J/K/mol	–
44.61 K	118.08 J/K/mol	–
44.81 K	119.19 J/K/mol	–
45 K	120.36 J/K/mol	–
45.02 K	120.42 J/K/mol	–
45.22 K	121.8 J/K/mol	–

Reference: the NIST ThermoML archive (doi:10.1016/j.jct.2013.02.023)
